Assay: Human HepG2 cell viability assay in 384 well format
Type: toxicity, cell-based
Set-up: dose 125 nL, time 70.5 hour; cytotoxicity at 70.5 h: concentration not given beside the values
Conditions: HepG2 cells, read-out: Inhibition

CCOc1c(Br)cc(C2C3=C(COC3=O)Nc3[nH]nc(C)c32)cc1OC (centres undefined)
cytotoxicity at 70.5 h: 29.2%

CC(C)c1sc(Br)nc1C(=O)NCc1ccco1
cytotoxicity at 70.5 h: 32.2%

COc1cccc2c1ccn2CCNC(=O)CCNc1ncccn1
cytotoxicity at 70.5 h: -18%

CS(=O)(=O)N1CCN(C(=O)c2cc(-c3ccc(Br)s3)n[nH]2)CC1
cytotoxicity at 70.5 h: -10.2%

Cc1cc(C)nc(N2CCC(C(=O)Nc3n[nH]c(C)n3)CC2)n1
cytotoxicity at 70.5 h: -7.75%

COc1ccccc1-c1cc(C(=O)Nc2nc[nH]n2)[nH]n1
cytotoxicity at 70.5 h: -12.9%

COc1ccc(CNC(=O)CCc2nnc3ccccn3c2=O)cc1
cytotoxicity at 70.5 h: 20.7%

Cn1cc(NC(=O)C2CC(=O)N(c3n[nH]c4cccc(F)c34)C2)cn1 (centres undefined)
cytotoxicity at 70.5 h: -26.5%

O=C(C1CC(=O)N(c2n[nH]c3cc(Br)ccc23)C1)N1CCSCC1 (centres undefined)
cytotoxicity at 70.5 h: -9.09%

Cn1cnc2cc(CCC(=O)Nc3n[nH]c(C4CCCO4)n3)ccc21 (centres undefined)
cytotoxicity at 70.5 h: 1.89%

Cc1cc(-c2nn3c(C(C)C)nnc3s2)on1
cytotoxicity at 70.5 h: -10.1%

O=C(Cn1cnc2sccc2c1=O)NCCc1nnc2ccccn12
cytotoxicity at 70.5 h: -11.3%

COCCn1cnc2ccc(NC(=O)CCCn3cccn3)cc2c1=O
cytotoxicity at 70.5 h: -7.81%

Cn1cc(C2SCC(=O)Nc3c2c(=O)[nH]n3C2CCOCC2)cn1 (centres undefined)
cytotoxicity at 70.5 h: 17.2%

CC(C)n1ccc2c(C(=O)NC3CN4CCC3CC4)cccc21 (centres undefined)
cytotoxicity at 70.5 h: -17.6%

CC(C)c1nc2cc(NC(=O)c3n[nH]c4c3CCC4)ccc2n1C
cytotoxicity at 70.5 h: -9.08%

COCCn1cnc2ccc(NC(=O)C3CC3)cc2c1=O
cytotoxicity at 70.5 h: -8.53%

COCCn1cnc2ccc(NC(=O)C(C)C)cc2c1=O
cytotoxicity at 70.5 h: -7.01%

O=C(Nc1nc[nH]n1)c1cc(-c2ccc(F)cc2)n[nH]1
cytotoxicity at 70.5 h: -14.4%

Cc1nc(C(=O)N2CCN(S(C)(=O)=O)CC2)c(-c2ccccc2Cl)s1
cytotoxicity at 70.5 h: 16%

Cc1cc(C)n(-c2cccc(C(=O)Nc3n[nH]c(C4CCCO4)n3)c2)n1 (centres undefined)
cytotoxicity at 70.5 h: -8.19%

Cc1cc(C(=O)Nc2n[nH]c(C3CC3)n2)c2c(C)nn(C)c2n1
cytotoxicity at 70.5 h: 25.6%

COc1ccc(CC(=O)Nc2ccc3ncn(C(C)C)c(=O)c3c2)cc1
cytotoxicity at 70.5 h: -5.16%

COc1ccc(CCC(=O)Nc2ccc3ncn(C)c(=O)c3c2)cc1
cytotoxicity at 70.5 h: -2.91%

COc1cn(CC(=O)N2CCC(c3ccccc3)CC2)c(C)cc1=O
cytotoxicity at 70.5 h: 23.7%

COc1ccc2c(ccn2CCC(=O)Nc2n[nH]c(CC(C)C)n2)c1
cytotoxicity at 70.5 h: 24%

Cc1[nH]nc(-c2ccc(F)cc2)c1CC(=O)NCC1CCOCC1
cytotoxicity at 70.5 h: -9.72%

COc1ccc(NC(=O)c2nc(C)sc2C)cn1
cytotoxicity at 70.5 h: 28%

Cn1cnc2cc(CCC(=O)Nc3n[nH]c(C4CC4)n3)ccc21
cytotoxicity at 70.5 h: 17.9%

CC(C)Cc1nc(NC(=O)c2cccnc2)n[nH]1
cytotoxicity at 70.5 h: -14.7%

COC(=O)CNC(=O)c1nc(Br)sc1C(C)C
cytotoxicity at 70.5 h: 42.9%

O=C1CSC(c2ccc(Cl)cc2Cl)c2c(n(C3CCOCC3)[nH]c2=O)N1 (centres undefined)
cytotoxicity at 70.5 h: -23.1%

COc1ccc(C(=O)Nc2n[nH]c(C3CCCO3)n2)cc1 (centres undefined)
cytotoxicity at 70.5 h: 26.5%

COc1ccc2c(ccn2CC(=O)Nc2n[nH]c(CC(C)C)n2)c1
cytotoxicity at 70.5 h: -11.7%

CCN1CCCC1CNC(=O)Cc1c(C)n[nH]c1-c1ccc(OC)cc1 (centres undefined)
cytotoxicity at 70.5 h: 24.8%

CC(C)Cn1ccc2c(NC(=O)c3n[nH]c4c3CCC4)cccc21
cytotoxicity at 70.5 h: 5.24%

CC(=O)Nc1cccc2c1ccn2CC(=O)Nc1ncc[nH]1
cytotoxicity at 70.5 h: -5.41%

COc1ccc2nnc(CCCC(=O)NCCc3ccccn3)n2n1
cytotoxicity at 70.5 h: -3.59%

CC(=O)Nc1cccc2c1ccn2CC(=O)Nc1nc[nH]n1
cytotoxicity at 70.5 h: -2.28%

COc1ccc2c(c1)s/c(=N\C(=O)CSCC(=O)Nc1nccs1)n2C
cytotoxicity at 70.5 h: 16.4%

COCCN(C)C(=O)c1nc2c(s1)CCCN2S(C)(=O)=O
cytotoxicity at 70.5 h: 3.66%

CC(C)NC(=O)[C@H]1C[C@H]2NCCO[C@@H]2C1
cytotoxicity at 70.5 h: 3.88%

O=C(Nc1ccccc1)N1C[C@@H]2OCCN(C(=O)c3ccco3)[C@@H]2C1
cytotoxicity at 70.5 h: -0.595%

Cc1cnc(N2C[C@@H]3[C@@H](C(=O)NCC(C)C)CCS(=O)(=O)[C@@H]3C2)nc1
cytotoxicity at 70.5 h: 0.36%

Cn1nc(CN2CCCC2)c2c1CN(C(=O)c1cnccn1)CC2
cytotoxicity at 70.5 h: -1.41%

CS(=O)(=O)N1CCCc2sc(C(=O)NC3CC3)nc21
cytotoxicity at 70.5 h: -3.24%

COCCO[C@H]1CCN(c2cc(OC)ncn2)[C@H]1Cc1cnn(C)c1
cytotoxicity at 70.5 h: -4.71%

O=S(=O)(C1CC1)N1CCO[C@@H]2CN(Cc3ccco3)C[C@@H]2C1
cytotoxicity at 70.5 h: -2.12%

CN1CCN(C(=O)C[C@@H]2COC[C@H]3CN(c4ccncn4)C[C@@H]23)CC1
cytotoxicity at 70.5 h: 12.2%

CC(C)NC(=O)c1nc2c(s1)CCCN2c1ccccc1
cytotoxicity at 70.5 h: 5.99%

COCC1CC2(CCN(C(=O)C3CCSCC3)CC2)CO1 (centres undefined)
cytotoxicity at 70.5 h: 8.61%

Cc1ccc(CN2CCC3(CCCN(C(=O)N(C)C)C3)C2)cc1 (centres undefined)
cytotoxicity at 70.5 h: -6.47%

CN(C)C(=O)N1CCCC2(CCN(Cc3ccncc3)C2)C1 (centres undefined)
cytotoxicity at 70.5 h: -7.12%

CC(C)N1CCO[C@H]2CN(S(=O)(=O)c3ccc(C#N)cc3)C[C@H]21
cytotoxicity at 70.5 h: -11.6%

CC1=N[C@@]2(CC[C@@H]3CN(CC(C)C)C[C@@H]32)C(=O)N1
cytotoxicity at 70.5 h: -4.43%

CN(C)C(=O)c1nc2c(s1)CCCN2Cc1ccccc1
cytotoxicity at 70.5 h: -7.89%

CC(=O)N1CCCC2(CCN(Cc3ccc(Cl)c(C(F)(F)F)c3)C2)C1 (centres undefined)
cytotoxicity at 70.5 h: -5.69%

CC(C)NC(=O)c1nc2c(s1)CCCN2Cc1ccccc1
cytotoxicity at 70.5 h: -6.15%

O=S(=O)(C1CC1)N1CCOC2(CCCN(c3cccc(F)c3)C2)C1 (centres undefined)
cytotoxicity at 70.5 h: -3.57%

CN(C)C(=O)CN1CCO[C@H]2CN(c3ccccn3)C[C@H]21
cytotoxicity at 70.5 h: -3.6%

CCS(=O)(=O)N1CCC2(CCCN(c3ncc(F)cn3)C2)C1 (centres undefined)
cytotoxicity at 70.5 h: -6.13%

O=C(Cc1ccccn1)N1CCC2(CC1)CN(c1ccccn1)CCO2
cytotoxicity at 70.5 h: -6.92%

CCS(=O)(=O)N1CCC2(CN(C(=O)c3cscn3)C2)C1
cytotoxicity at 70.5 h: -3.48%

Cc1ccc(C(=O)N2C[C@@H]3CN(c4ncccn4)C[C@@H]3C2)cc1
cytotoxicity at 70.5 h: -4.94%

COCCC(=O)N1CC2(CCN(c3ccccc3)C2)C1
cytotoxicity at 70.5 h: 3.88%

Cc1cccc(N2CCCC3(C2)CN(S(C)(=O)=O)CCO3)c1 (centres undefined)
cytotoxicity at 70.5 h: -4.48%

COCCN1C(=O)CC[C@@H]2[C@H]1CCN2C(=O)C1CCOCC1
cytotoxicity at 70.5 h: -7.67%

Cc1cccc(Cl)c1NC(=O)Cn1cc(C(=O)O)ccc1=O
cytotoxicity at 70.5 h: -2.75%

O=C(Cn1cc(C(=O)O)ccc1=O)NCc1ccc(F)cc1Cl
cytotoxicity at 70.5 h: 5.89%

O=C(Cn1cc(C(=O)O)ccc1=O)Nc1cc(F)ccc1F
cytotoxicity at 70.5 h: -9.56%

COc1cccc(C2C3=C(COC3=O)Nc3[nH]nc(C)c32)c1OC (centres undefined)
cytotoxicity at 70.5 h: -3.26%

CCN(CC)c1ccc(C2C3=C(COC3=O)Nc3[nH]nc(C)c32)cc1 (centres undefined)
cytotoxicity at 70.5 h: -4.13%

O=C1CC(c2ccc(F)cc2)Cc2[nH]c(=O)c(C(=O)O)cc21 (centres undefined)
cytotoxicity at 70.5 h: -8.55%

O=C1N(c2ccc(Cl)cc2)Cc2nc(=O)[nH]n21
cytotoxicity at 70.5 h: -11.3%

O=C1N(c2cccc(F)c2)Cc2nc(=O)[nH]n21
cytotoxicity at 70.5 h: -7.69%

COc1cccc(C2SCC(=O)Nc3ccsc32)c1 (centres undefined)
cytotoxicity at 70.5 h: 0.777%

O=C1CC(c2ccc(C(=O)O)cc2)c2ncn(-c3ccc(Cl)cc3)c2N1 (centres undefined)
cytotoxicity at 70.5 h: -13%

Cc1ncc(CN(C)CCO)c2cc(C(=O)c3ccc(Br)cc3)oc12
cytotoxicity at 70.5 h: -15.5%

COCCN1CCCn2cnc(CNC3CCCC3)c2C1
cytotoxicity at 70.5 h: 0.0497%

Cn1nnc2c1CCN(Cc1ccoc1)C2COCc1ccccc1 (centres undefined)
cytotoxicity at 70.5 h: 1.66%

CN(C)C1CC2(CCN(C(=O)c3csnn3)CC2)c2ccccc21 (centres undefined)
cytotoxicity at 70.5 h: -0.291%

CCOC1CC2(CCN(Cc3cccn3C)CC2)C1
cytotoxicity at 70.5 h: 2.31%

Cc1cc(CN2C[C@@H]3CN(C(=O)c4cccn4C)CCO[C@@H]3C2)no1
cytotoxicity at 70.5 h: 1.95%

CC(C)COC1CC2(CCN(Cc3nccn3C)CC2)C1
cytotoxicity at 70.5 h: 6.92%

COC1CC2(CCN(Cc3nccn3C)CC2)C1
cytotoxicity at 70.5 h: -5.43%

O=C(c1ccsc1)N1CCO[C@@H]2CN(Cc3ccccn3)CC[C@@H]2C1
cytotoxicity at 70.5 h: 8.56%

CC(C)Nc1ncnc2c1CCN(C(=O)NCc1cccnc1)CC2
cytotoxicity at 70.5 h: -1.24%

CCOc1ncnc2c1CCN(C(=O)NCc1cccnc1)CC2
cytotoxicity at 70.5 h: 6.36%

CCS(=O)(=O)N1C[C@@H]2CN(Cc3ccco3)CCO[C@@H]2C1
cytotoxicity at 70.5 h: 27.9%

COc1cc(N2CCC3(CCCN(C(=O)c4cccnc4)C3)C2)ncn1 (centres undefined)
cytotoxicity at 70.5 h: 16.7%

CCN1CCO[C@@H]2CN(C(=O)COC3CCCC3)C[C@@H]2C1
cytotoxicity at 70.5 h: 7.26%

CN1CCO[C@H]2CN(S(=O)(=O)c3ccc(C#N)cc3)C[C@H]21
cytotoxicity at 70.5 h: 3.3%

Cc1nc(NCc2ccco2)nc2c1COCC21CCNC1 (centres undefined)
cytotoxicity at 70.5 h: -8.24%

COCC(=O)N1CCC2(CC1)CNc1ccc(F)cc12
cytotoxicity at 70.5 h: -9.36%

Cc1cnc(N2C[C@H]3CCN(CC4CC4)C[C@@H]3C2)nc1
cytotoxicity at 70.5 h: 7.8%

Cc1cccc(N2CCCC3(C2)CN(S(=O)(=O)C2CC2)CCO3)c1 (centres undefined)
cytotoxicity at 70.5 h: -3.02%

c1csc(CN2CCc3onc(Cn4cccc4)c3C2)c1
cytotoxicity at 70.5 h: 2.81%

CC(=O)N1CCn2c(-c3cccc(F)c3)cnc2C12CCNCC2
cytotoxicity at 70.5 h: -7.49%

O=C(Cc1ccccn1)N1CCC2(CC1)CN(CC1CC1)C(=O)CO2
cytotoxicity at 70.5 h: -5.52%

Cc1cccc(COCC2c3nnn(C)c3CCN2Cc2ccoc2)n1 (centres undefined)
cytotoxicity at 70.5 h: -5.52%

c1nc2n(c1CN1CCCCC1)CCN(C1CCOC1)CC2 (centres undefined)
cytotoxicity at 70.5 h: -3.62%

CC(C)NC1CCc2c(ccc(=O)n2CCN(C)C)C1 (centres undefined)
cytotoxicity at 70.5 h: 7.71%

COCCN1CCCn2cnc(CNC(=O)N(C)C)c2C1
cytotoxicity at 70.5 h: -3.75%

CN(C)Cc1noc2c1CN(C(=O)c1ccncc1)CC2
cytotoxicity at 70.5 h: 5.83%

CC(=O)N1[C@H](CN(C)C)C[C@@H]2CN(c3ncc(F)cn3)CC[C@@H]21
cytotoxicity at 70.5 h: -6.27%

CN(C)C(=O)NCc1ncn2c1CN(Cc1cccs1)CCC2
cytotoxicity at 70.5 h: -3.13%

CC(C)NC1CCc2c(ccc(=O)n2CCN2CCOCC2)C1 (centres undefined)
cytotoxicity at 70.5 h: -6.6%

Cn1cc2c(n1)C(CNCC1CCOCC1)OCC2 (centres undefined)
cytotoxicity at 70.5 h: 4.92%

Cc1cnc(N2CC[C@H]3[C@H](C[C@@H](CN(C)C)N3C)C2)nc1
cytotoxicity at 70.5 h: -6.09%
